Measurements published in patent US9079870B2, “Thiol mediated/activated prodrugs of sulfur dioxide (SO2) having anti-bacterial activity” (priority 2012, dated 2015).
In brackets after ≈: the same amount, converted by molar mass. Read-outs that look alike come from different tables or passages of the source.

Tests used:
[1] = system: Mycobacterium tuberculosis H37Rv strain; test: Antimycobacterial activity assay (MIC, 7H11 agar); format: cell-based; settings: for inhibition of growth of Mtb at 100 μg mL-1: tested at 100 μg mL-1
[2] = Pararosaniline-based colorimetric assay for sulfur dioxide; format: physicochemical; settings: detected with pararosaniline-based colorimetric assay; 10 equiv cysteine, pH 7.4
S. aureus ATCC 29213 = test: Antibacterial activity (MIC) against S. aureus; format: cell-based
From the text: (§1) The antibacterial activity of thiol mediated/activated prodrugs of SO2 i.e. 2,4-dinitrophenylsulfonamide related compounds against the gram positive pathogenic bacteria selected from the group S. aureus, E. feacalis is given herein below Table 2a.

E. feacalis ATCC 29212 = test: Antibacterial activity (MIC) against E. feacalis; format: cell-based
From the text: as §1

[3] = Cysteine-activated sulfur dioxide release, ion chromatography analysis of sulfite; settings: for SO2 yield, 5 min: 5 min after treatment of compound (100 1M) with 10 equiv of cysteine in pH 7.4 phosphate buffer; for % SO2 (30 min): 30 min after commencement of the reaction with thiol, per mole of compound
[4] = Mycobacterium tuberculosis, Table 3, Mtb H37Rv, read-out: MIC
[5] = Mycobacterium tuberculosis, H37RV, Table 3, Mtb H37Rv
[6] = Mycobacterium tuberculosis, H37RV, Table 3, inhibit 99% of bacterial growth, Mtb H37Rv
[7] = Staphylococcus aureus, ATCC29213; read-out: MIC (μg/mL) S. aureus ATCC 29213
[8] = Enterococcus faecalis, ATCC29212; read-out: MIC (μg/mL) E. feacalis ATCC 29212
[9] = Mycobacterium tuberculosis, H37RV, Table 2b, Mtb H37Rv
[10] = Mycobacterium tuberculosis, H37RV, Table 2b, inhibit 99% of bacterial growth, Mtb H37Rv
[11] = 30 min after treatment of compound (100 1M) with 10 equiv of cysteine in pH 7.4 phosphate buffer
[12] = Table 2b, Mtb H37Rv, read-out: MIC
[13] = Mycobacterium tuberculosis, H37RV, 672 h, Table 3, inhibit 99% of bacterial growth, Mtb H37Rv, read-out: MIC
[14] = Table 3, 30 min after treatment of compound (100 μM) with 10 equiv of cysteine in pH 7.4 phosphate buffer
[15] = Staphylococcus aureus, ATCC29213, read-out: MIC (μg/mL) S. aureus ATCC 29213
[16] = Enterococcus faecalis, ATCC29212, read-out: MIC (μg/mL) E. feacalis ATCC 29212
[17] = Mycobacterium tuberculosis, Table 2b, Mtb H37Rv, read-out: MIC
[18] = Mycobacterium tuberculosis, Table 2b, inhibit 99% of bacterial growth, Mtb H37Rv, read-out: MIC

SMILES: NCc1ccccc1 [BnNH2, Benzylamine, reference compound]
- MIC [1, 4]: > 250 µM
- MIC ([1]; Mycobacterium tuberculosis, Table 3, inhibit 99% of bacterial growth, Mtb H37Rv, read-out: MIC): > 100 µg/mL
- inhibition of growth of Mtb at 100 μg mL-1 [1]: did not show a significant inhibition of growth of Mtb
- SO2 source [2]: no

SMILES: CNCc1ccccc1 [BnNHMe, N-methylbenzylamine, reference compound]
- MIC [1, 5]: > 250 µM
- MIC [1, 6]: > 100 µg/mL
- inhibition of growth of Mtb at 100 μg mL-1 [1]: a similar observation
- SO2 source [2]: no

SMILES: COc1ccc(CNS(=O)(=O)c2ccc([N+](=O)[O-])cc2[N+](=O)[O-])cc1 [Compound 2, N-(4-methoxybenzyl)2,4-dinitrophenylsulfonamide]
- MIC (S. aureus ATCC 29213; [7]): > 16 µg/mL
- MIC (E. feacalis ATCC 29212; [8]): > 16 µg/mL
- MIC [1, 9]: 0.68 µM
- MIC [1, 10]: 0.25 µg/mL
- SO2 yield, 5 min [3]: 74 µM
- SO2 yield, 30 min [3, 11]: 84 µM

SMILES: O=[N+]([O-])c1ccc(S(=O)(=O)NCc2ccc(Cl)cc2)c([N+](=O)[O-])c1 [Compound 3, N-(4-chlorobenzyl)2,4-dinitrophenylsulfonamide]
- MIC [1, 9]: 1.07 µM
- MIC [1, 10]: 0.4 µg/mL
- SO2 yield, 5 min [3]: 77 µM
- SO2 yield, 30 min [3, 11]: 96 µM

SMILES: O=[N+]([O-])c1ccc(S(=O)(=O)NCc2ccc(C(F)(F)F)cc2)c([N+](=O)[O-])c1 [Compound 4, N-(4-trifluoromethylbenzyl) 2,4-dinitrophenylsulfonamide]
- MIC [1]: 0.4 µg/mL
- MIC [1, 12]: 0.98 µM
- SO2 yield, 5 min [3]: 79 µM
- SO2 yield, 30 min [3, 11]: 75 µM

SMILES: O=[N+]([O-])c1ccc(S(=O)(=O)NCc2ccccc2C(F)(F)F)c([N+](=O)[O-])c1 [Compound 5, N-(2-trifluoromethylbenzyl) 2,4-dinitrophenylsulfonamide]
- MIC [1]: 1.56 µg/mL
- MIC [1, 12]: 3.84 µM
- SO2 yield, 5 min [3]: 81 µM
- SO2 yield, 30 min [3, 11]: 84 µM

SMILES: COc1ccccc1NS(=O)(=O)c1ccc([N+](=O)[O-])cc1[N+](=O)[O-] [Compound 8, N-(2-methoxyphenyl) 2,4-dinitrophenylsulfonamide]
- MIC (S. aureus ATCC 29213; [7]): 8 µg/mL (≈ 22.6 µM)
- MIC (E. feacalis ATCC 29212; [8]): 16 µg/mL (≈ 45.3 µM)
- MIC [1, 9]: 8.85 µM
- MIC [1, 10]: 3.13 µg/mL
- SO2 yield, 5 min [3]: 57 µM
- SO2 yield, 30 min [3, 11]: 86 µM

SMILES: O=[N+]([O-])c1ccc(S(=O)(=O)Nc2ccc(F)cc2)c([N+](=O)[O-])c1 [Compound 10, N-(4-fluorophenyl) 2,4-dinitrophenylsulfonamide]
- MIC (S. aureus ATCC 29213; [7]): 16 µg/mL (≈ 46.9 µM)
- MIC (E. feacalis ATCC 29212; [8]): > 16 µg/mL
- MIC [1, 9]: 18.3 µM
- MIC [1, 10]: 6.25 µg/mL
- SO2 yield, 5 min [3]: 18 µM
- SO2 yield, 30 min [3, 11]: 55 µM

SMILES: N#Cc1ccc(NS(=O)(=O)c2ccc([N+](=O)[O-])cc2[N+](=O)[O-])cc1 [Compound 11, N-(4-cyanophenyl) 2,4-dinitrophenylsulfonamide]
- MIC (S. aureus ATCC 29213; [7]): > 16 µg/mL
- MIC (E. feacalis ATCC 29212; [8]): > 16 µg/mL
- MIC [1, 9]: > 100 µM
- MIC [1, 10]: > 50 µg/mL
- SO2 yield, 5 min [3]: 6 µM
- SO2 yield in 30 min (%) ([3]; 30 min after commencement of the reaction with cysteine (10 equiv), pH 7.4): 5%
- SO2 yield, 30 min [3, 11]: 5 µM

SMILES: C[C@H](NS(=O)(=O)c1ccc([N+](=O)[O-])cc1[N+](=O)[O-])c1ccccc1 [Compound 12, (S) N-(1-phenylethyl)-2,4-dinitrobenzenesulfonamide]
- MIC [1, 9]: 4.44 µM
- MIC [1, 10]: 1.56 µg/mL
- SO2 yield, 5 min [3]: 80 µM
- SO2 yield, 30 min [3, 11]: 97 µM

SMILES: C[C@@H](NS(=O)(=O)c1ccc([N+](=O)[O-])cc1[N+](=O)[O-])c1ccccc1 [Compound 13, (R) N-(1-phenylethyl)-2,4-dinitrobenzenesulfonamide]
- MIC [1, 9]: 4.44 µM
- MIC [1, 10]: 1.56 µg/mL
- SO2 yield, 5 min [3]: 78 µM
- SO2 yield, 30 min [3, 11]: 94 µM

SMILES: O=[N+]([O-])c1ccc(S(=O)(=O)NCCc2ccccc2)c([N+](=O)[O-])c1 [Compound 14, N-(2-phenylethyl) 2,4-dinitrophenylsulfonamide]
- MIC [1]: 0.4 µg/mL
- MIC [1, 12]: 1.13 µM
- SO2 yield, 5 min [3]: 76 µM
- SO2 yield, 30 min [3, 11]: 100 µM

SMILES: O=[N+]([O-])c1ccc(S(=O)(=O)N(Cc2ccccc2)c2ccccc2)c([N+](=O)[O-])c1 [Compound 17, (N-benzyl, N-phenyl) 2,4-dinitrophenylsulfonamide]
- MIC [1, 12]: 4.44 µM
- MIC ([1]; Table 2b, inhibit 99% of bacterial growth, Mtb H37Rv): 1.56 µg/mL
- SO2 yield, 5 min [3]: 44 µM
- SO2 yield, 30 min [3, 11]: 94 µM

SMILES: CN(c1ccccc1)S(=O)(=O)c1ccc([N+](=O)[O-])cc1[N+](=O)[O-] [Compound 18, (N-methyl, N-phenyl) 2,4-dinitrophenylsulfonamide]
- MIC [1]: 0.78 µg/mL
- MIC [1, 12]: 2.31 µM
- SO2 yield, 5 min [3]: 89 µM
- SO2 yield, 30 min [3, 11]: 94 µM

SMILES: CN(CCc1ccccc1)S(=O)(=O)c1ccc([N+](=O)[O-])cc1[N+](=O)[O-] [Compound 19, N-methyl, N-(2-phenylethyl) 2,4-dinitrophenylsulfonamide]
- MIC [1]: 0.78 µg/mL
- MIC [1, 12]: 2.13 µM
- SO2 yield, 5 min [3]: 79 µM
- SO2 yield, 30 min [3, 11]: 84 µM

SMILES: O=[N+]([O-])c1ccc(S(=O)(=O)N(CCc2ccccc2)Cc2ccccc2)c([N+](=O)[O-])c1 [Compound 20, N-benzyl, N-(2-phenylethyl) 2,4-dinitrophenylsulfonamide]
- MIC [1]: 3.13 µg/mL
- MIC [1, 12]: 7.09 µM
- SO2 yield, 5 min [3]: 37 µM
- SO2 yield, 30 min [3, 11]: 75 µM

SMILES: COC(=O)C(C)NS(=O)(=O)c1ccc([N+](=O)[O-])cc1[N+](=O)[O-] (stereo not shown) [Compound 21, Methyl 2-{[(2,4-dinitrophenyl)sulfonyl]amino}propanoate]
- MIC [1, 13]: ≤ 25 µg/mL
- MIC [1, 5]: 18.7 µM
- MIC [1, 6]: 6.25 µg/mL
- SO2 source [2]: yes
- SO2 yield, 30 min [3, 14]: 93 µM

SMILES: COC(=O)C1CCCN1S(=O)(=O)c1ccc([N+](=O)[O-])cc1[N+](=O)[O-] (stereo not shown) [Compound 22, Methyl 1[(2,4-dinitrophenyl)sulfonyl]pyrrolidine-2-carboxylate]
- MIC [1, 13]: ≤ 25 µg/mL
- MIC [1, 5]: 35 µM
- MIC [1, 6]: 12.5 µg/mL
- SO2 source [2]: yes
- SO2 yield, 30 min [3, 14]: 83 µM

SMILES: CN1CCN(S(=O)(=O)c2ccc([N+](=O)[O-])cc2[N+](=O)[O-])CC1 [Compound 25, 1-[(2,4-dinitrophenyl)sulfonyl]-4-methylpiperazine]
- MIC [1, 13]: ≤ 25 µg/mL
- MIC [1, 5]: 38 µM
- MIC [1, 6]: 12.5 µg/mL
- SO2 source [2]: yes
- SO2 yield, 30 min [3, 14]: 88 µM

SMILES: C=CCN(CC=C)S(=O)(=O)c1ccc([N+](=O)[O-])cc1[N+](=O)[O-] [Compound 32, N,N-diallyl-2,4-dinitrobenzenesulfonamide]
- MIC (S. aureus ATCC 29213; [15]): 8 µg/mL (≈ 24.4 µM)
- MIC (E. feacalis ATCC 29212; [16]): > 16 µg/mL

SMILES: C#CCN(Cc1ccccc1)S(=O)(=O)c1ccc([N+](=O)[O-])cc1[N+](=O)[O-] [Compound 33, N-benzyl-2,4-dinitro-N-prop-2-yn-1-ylbenzenesulfonamide]
- MIC (S. aureus ATCC 29213; [15]): 4 µg/mL (≈ 10.7 µM)
- MIC (E. feacalis ATCC 29212; [16]): 8 µg/mL (≈ 21.3 µM)

SMILES: COc1ccccc1N(CCCN(Cc1ccccc1)S(=O)(=O)c1ccc([N+](=O)[O-])cc1[N+](=O)[O-])S(=O)(=O)c1ccc([N+](=O)[O-])cc1[N+](=O)[O-] [Compound 35, N-benzyl-N-(3-(N-(2-methoxyphenyl)-2,4-dinitrophenylsulfonamido)propyl)-2,4-dinitrobenzenesulfonamide]
- % SO2 (30 min) [3]: 161%

SMILES: O=[N+]([O-])c1ccc(S(=O)(=O)N(CCCN(Cc2ccccc2)S(=O)(=O)c2ccccc2[N+](=O)[O-])Cc2ccccc2)c([N+](=O)[O-])c1 [Compound 40, N-benzyl-N-(3-(N-benzyl-2-nitrophenylsulfonamido)propyl)-2,4-dinitrobenzenesulfon-amide]
- % SO2 (30 min) [3]: 88%

SMILES: O=[N+]([O-])c1cccc(S(=O)(=O)N(CCCN(Cc2ccccc2)S(=O)(=O)c2ccc([N+](=O)[O-])cc2[N+](=O)[O-])Cc2ccccc2)c1 [Compound 41, N-benzyl-N-(3-(N-benzyl-3-nitrophenylsulfonamido)propyl)-2,4-dinitrobenzenesulfon-amide]
- % SO2 (30 min) [3]: 99%

SMILES: O=[N+]([O-])c1ccc(S(=O)(=O)N(CCCN(Cc2ccccc2)S(=O)(=O)c2ccc([N+](=O)[O-])cc2[N+](=O)[O-])Cc2ccccc2)cc1 [Compound 42, N-benzyl-N-(3-(N-benzyl-4-nitrophenylsulfonamido)propyl)-2,4-dinitrobenzenesulfon-amide]
- % SO2 (30 min) [3]: 98%

SMILES: CC[C@@H](CO)NCCN[C@@H](CC)CO [Ethambutol, reference compound]
- MIC [1, 17]: 7.63 µM
- MIC [1, 18]: 1.56 µg/mL

SMILES: NNC(=O)c1ccncc1 [Isoniazide, reference compound]
- MIC [1, 18]: 0.05 µg/mL
- MIC [1, 4]: 0.37 µM
- MIC [1, 12]: 0.37 µM
- MIC ([1]; Table 3, inhibit 99% of bacterial growth, Mtb H37Rv): 0.05 µg/mL
- SO2 source [2]: no

SMILES: NC(=O)c1cnccn1 [Pyrizinamide, reference compound]
- MIC [1, 17]: 50.8 µM
- MIC [1, 18]: 6.25 µg/mL

SMILES: O=S([O-])[O-].[Na+].[Na+] [sodium sulfite, reference compound]
- inhibition of growth of Mtb at 100 μg mL-1 [1]: inactive against Mtb
